The record followed here is US8129527B2, “Analogs of dehydrophenylahistins and their therapeutic use” (Nereus Pharmacuticals, Inc., priority 2006, dated 2012).

Read-outs that look alike come from different tables or passages of the source.

As a reminder, the EC50 is the concentration that produces a half-maximal response. The term MIC denotes the smallest concentration in the dilution series that meets the test's criterion for growth inhibition.

In series [1] the test system is HL-60 human acute promyelocytic leukemia cells. The series is described as follows: Cell growth inhibition assay, resazurin (Example 11). It counts as cell-based. To be noted: mean values of two independent experiments. The method, then: (§1) Human uterine sarcoma (MES-SA; CRL-1976), its multidrug resistant derivative (MES-SA/Dx5; CRL-1977), human acute promyelocytic leukemia cells (HL-60; CCL-240) and its multidrug resistant derivative (HL-60/MX2; CRL-2257) were purchased from ATCC and maintained in appropriate culture media. The cells were cultured in an incubator at 37° C. in 5% CO2 and 95% humidified air.
(§2) For cell growth inhibition assays, MES-SA and MES-SA/Dx5 cells were both seeded at 3×10^3 cells/well in 90 μl complete media into 96 well (Corning; 3904) black-walled, clear-bottom tissue culture plates and the plates were incubated overnight to allow cells to establish and enter log phase growth. HL-60 and HL-60/MX2 cells were both seeded at 5×10^4 cells/well in 90 μl complete media into 96 well plates on the day of compound addition. 20 mM stock solutions of the compounds were prepared in 100% DMSO and stored at −80° C. […] Ten μl volumes of the 10× serial dilutions were added to the test wells in triplicate and the plates returned to the incubator for 48 hours. The final concentration of DMSO was 0.25% in all samples.
(§3) Following 48 hours of drug exposure, 10 μl of 0.2 mg/ml resazurin (obtained from Sigma-Aldrich Chemical Co.) in Mg^2+, Ca^2+ free phosphate buffered saline was added to each well and the plates were returned to the incubator for 3-6 hours. […] Resazurin dye in medium without cells was used to determine the background, which was subtracted from the data for all experimental wells.
(§4) HL-60/MX2 is a multidrug resistant tumor cell line derived from the human promyelocytic leukemia cell line, HL-60 and expresses reduced topoisomerase II activity. The data presented in Table 20 summarize the growth inhibitory effects of NPI-2421, NPI-2463, NPI-2503, NPI-2504 and NPI-2506 against HL-60 and its multidrug resistant derivative HL-60/MX2. Mitoxantrone, the topoisomerase II targeting agent was included as a control.
In general terms: Alamar Blue is a resazurin reagent that responds to reducing activity.

The test system of series [2] is MES-SA/Dx5 multidrug resistant. The description is as above. It counts as cell-based, human. Here is the method:
as §1, §2, §3
(§5) The multidrug resistant MES-SA/Dx5 tumor cell line was derived from the human uterine sarcoma MES-SA tumor cell line and expresses elevated P-Glycoprotein (P-gp), an ATP dependent efflux pump. The data in Table 19 summarize the growth inhibitory effects of NPI-2421, NPI-2463, NPI-2503, NPI-2504 and NPI-2506 against MES-SA and its multidrug resistant derivative MES-SA/Dx5. Paclitaxel, a known substrate of the P-gp pump was included as a control.

Series [3] has as its system MES-SA human uterine sarcoma. The description is as above. It counts as cell-based. As to conditions: mean ± standard deviation of three independent experiments. Here is the method:
as §1, §2, §3, §5

The subject of series [4] is HT-29 human colorectal carcinoma cells. The series is described as follows: Cell growth inhibition assay, resazurin (Table 3.2). It counts as cell-based. As to conditions: Table 3.2, HT-29 cells, read-out: EC50 (M) Mean. An outline of the steps:
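HT-29 cells seeded at 5×10^3/well overnight, then exposed in triplicate to compounds at final 20 μM to […] (0.25% DMSO) for 48 h at 37° C. Viability read by resazurin reduction after 3-4 h further incubation, with cell-free dye background subtracted.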

Series [5] concerns HT-29 colorectal adenocarcinoma. The series can be described thus: Cell growth inhibition assay, resazurin (Example 11). It counts as cell-based. To be noted: Homo sapiens, 48 hours, mean ± SD where n ≧ 3. Here is the method:
(§6) The growth inhibitory activity of NPI-2421, NPI-2463, NPI-2503 and NPI-2504 were determined against selected human (colorectal adenocarcinoma, HT-29; breast adenocarcinoma, MDA-MB-231; non-small cell lung carcinoma, NCI-H292 and prostate carcinomas, PC-3 and DU 145) and mouse (melanoma, B16-F10) tumor cell lines.
(§7) HT-29 (HTB-38), MDA-MB-231 (HTB-26), NCI-H292 (CRL-1848), B16-F10 (CRL-6475), PC-3 (CRL-1435) and DU 145 (HTB-81) cells were all purchased from the ATCC. The cell lines were maintained in their respective ATCC recommended culture media and cultured in an incubator at 37° C. in 5% CO2 and 95% humidified air.
(§8) 20 mM stock solutions of compounds were prepared in 100% DMSO and stored at −80° C. 10× concentrated serial dilutions of the compounds were prepared in B16-F10 cell culture medium for final concentrations ranging from 20 μM to […]. Ten μl volumes of the 10× serial dilutions were added to the test wells in triplicate and the plates returned to the incubator for 48 hours. The final concentration of DMSO was 0.25% in all samples.
as §3

A further series concerns PC-3 prostate carcinoma. The description is as above. It counts as cell-based. As to conditions: Homo sapiens, 48 hours, mean ± SD where n ≧ 3, ** n = 1. The method, then:
as §6, §7, §8, §3

The test system of series [6] is NCI-H292 non-small cell lung carcinoma. The description is as above. It counts as cell-based. To be noted: Homo sapiens, 48 hours, mean ± SD where n ≧ 3, ** n = 1. The method, then: as §6, §7, §8, §3
The subject of another series is B16-F10 melanoma. Described as above. It counts as cell-based. To be noted: Mus musculus, 48 hours, mean ± SD where n ≧ 3. Here is the method:
as §6, §7, §8, §3

Series [7] relates to MDA-MB-231 breast adenocarcinoma. Described as above. To be noted: Homo sapiens, 48 hours, mean ± SD where n ≧ 3. It counts as cell-based. The method, then:
as §6, §7, §8, §3

The test system of series [8] is HL-60/MX2 multidrug resistant. Described as above. It counts as cell-based, human. Here is the method: as §1, §2, §3, §4
The next series deals with MAP-rich microtubules. The series can be described thus: Microtubule mean length distributions, transmission electron microscopy. It counts as biochemical, bovine. To be noted: in words. The method, then:
Transmission electron microscopy was used to determine the mean length distribution of microtubules in the absence or presence of tested agent. At 75 minutes and prior to sedimentation, 10 μl aliquots from the polymer mass experiments were fixed by dilution into 290 μl PEM100-buffered 0.2% glutaraldehyde. Thirty microliters of fixed sample was settled onto formvar-coated 150 ICG mesh electron microscope grids for 90 seconds. Excess sample was wicked off with Whatman filter paper. Thirty microliters of cytochrome C (1 mg/ml) was applied for 30 seconds to enhance protofilament resolution and facilitate negative staining. Uranyl acetate (1.5%) was applied for 20 seconds and the excess was wicked off Grids were viewed in a Jeol electron microscope-1200 EX11 at 2000× and 30,000× magnification. The Zeiss MOPIII was used to determine microtubule length distributions and mean lengths for at least 100 microtubules per sample.

In a further series the test system is Candida glabrata. The series can be described thus: Antifungal susceptibility testing, broth dilution (MIC/MFC). As to conditions: Nakaseomyces glabratus; C. glabrata; read-out: MIC. It counts as cell-based. The method, then:
(§9) Specifically, disclosed compounds were evaluated alongside commercially available microtubulin inhibitors as well as recognized antifungal agents.
(§10) Microorganisms against which these compounds were tested included: Candida albicans, Candida glabrata, Aspergillus fumigatus, Trichophyton rubrum, Trichophyton mentagrophytes, Epidermophyton floccosum. With the exception of Candida glabrata (one isolate), two isolates of each species were tested.
(§11) The minimum lethal concentration (MLC) was determined by plating […] from the MIC concentration and each concentration above the MIC. […] When a MIC was obtained, a minimum fungicidal concentration (MFC) was determined to assess the fungistatic/fungicidal nature of the compound.
(In broth dilution the organism is exposed to a series of concentrations in liquid medium.)

The test system of a further series is Candida albicans. The series is described as above. It counts as cell-based. Here is the method: as §9, §10, §11
The next series has as its system HuVEC. The series can be described thus: Action on microtubule function, α-tubulin staining. To be noted: 2 μM, thirty minutes exposure.

`CC(C)(C)c1ocnc1/C=c1\[nH]c(=O)/c(=C/c2c(F)c(F)cc(F)c2F)[nH]c1=O` [Compound 2504, tBu-oxadelta-PLH-2,3,5,6-tetrafluoro]: the EC50 in series [1] is 30 nM; in series [2] (Homo sapiens, MES-SA/Dx5, mean ± standard deviation of three independent experiments) it was 14 ± 3 nM; in series [3], 13 ± 3 nM; in series [4], 1.48e-08 M; in series [5], 11 nM; in the series with PC-3 prostate carcinoma, over 2000 nM. Also, the EC50 was determined as 42 nM in [6]; 14 ± 3 nM in the series with B16-F10 melanoma; 17 nM in series [7]; 13 nM in [8] (Homo sapiens, HL60/MX2, HL-60/MX2, mean values of two independent experiments). Besides, in [2] (in words), the “cytotoxic activity against both MES-SA and MES-SA/Dx5” value was “retained equivalent cytotoxic activity”. Further, the Fold change in series [2] (ratio of EC50 values (MES-SA/Dx5:MES-SA)) worked out at 1.1; in series [8] (ratio of EC50 values (HL-60/MX2:HL-60)) it was 0.4. Further, the “cytotoxic activity against both HL-60 and HL-60/MX2” value in series [8] (in words) was “retained cytotoxic activity”.
For the compound `COc1cc2c(c(OC)c1OC)-c1ccc(OC)c(=O)cc1[C@@H](NC(C)=O)CC2` [Colchicine], in the series on MAP-rich microtubules, the MT nucleation result is listed as “did not affect MT nucleation”. Moreover, the MIC in the series on Candida glabrata was over 128 µg/mL; in the series with Candida albicans (C. albicans 10231), over 128 µg/mL; with Candida albicans (Candida albicans, C. albicans 90028, read-out: MIC) it was over 128 µg/mL. Moreover, in the series on HuVEC, the “microtubule depolymerization in HuVEC cells” value was “induced microtubule depolymerization”.
